Reference: US8796244B2, “Imidazopyridine derivatives as inhibitors of receptor tyrosine kinases” (Astex Therapeutics Ltd, priority 2008, dated 2014)
Structures can show the parent of a compound that is named as a salt. Where two headings read alike, the source gives them in different places.

How the values were obtained:
[1] = tested on: LP-1 cell line (FGF-1/Heparin induced pERK); experiment: Cell-based pERK ELISA, LP-1 cells; details: Homo sapiens; for IC50: LP-1, read-out: LP-1 pERK ELISA (μM)
[2] = tested on: parental wild-type Ba/F3 cells; experiment: Ba/F3 (WT) cell proliferation assay (Alamar Blue); format: cell-based; details: Mus musculus
[3] = BaF3, read-out: BaF3 WT prolif, % inhibition
[4] = BaF3, 72 hours, Alamar Blue, read-out: BaF3 WT prolif
[5] = LP-1, read-out: LP-1 pERK ELISA, % inhibition
[6] = BaF3, 72 h, read-out: BaF3 WT prolif (μM)

Row | IC50 [1] [µM] | Structure (SMILES) | IC50 [2, 4] [µM] | also measured
1 | 0.012 | COCCc1nnc(-c2ccn3c(-c4cccc(NC(=O)NCC(F)(F)F)c4)cnc3c2)s1 [Compound 319] | 0.15 | 
2 | 0.074 | COc1ccnc(-c2ccn3c(-c4cccc(NC(=O)NCC(F)(F)F)c4)cnc3c2)n1 [Compound 336] | 0.46 | 
3 | 0.0074 | O=C(NCC(F)(F)F)Nc1cccc(-c2cnc3cc(-c4nnc(C5CCCO5)s4)ccn23)c1 (centres unmarked) [Example 1, 1-(3-{7-[5-(Tetrahydrofuran-2-yl)-[1,3,4]thiadiazol-2-yl]imidazo[1,2-a]pyridin-3-yl}-phenyl)-3-(2,2,2-trifluoroethyl)urea] | 0.92 | 
4 |  | CCOC(=O)C(C)(C)n1cc(-c2ccn3c(-c4cccc(NC(=O)NCC(F)(F)F)c4)cnc3c2)cn1 [Example 2, 2-Methyl-2-[4-(3-{3-[3-(2,2,2-trifluoroethyl)ureido]phenyl}imidazo [1,2-a]pyridin-7-yl)pyrazol-1-yl] propionic acid ethyl ester] |  | inhibition at 0.003 µM [1, 5]: 62%; inhibition at 10 µM [2, 3]: 12%
5 | 0.0088 | O=C(NCC(F)(F)F)Nc1cccc(-c2cnc3cc(-c4ccccn4)ccn23)c1 [Example 3, 1-[3-(7-Pyridin-2-ylimidazo[1,2-a]pyridinyl)phenyl]-3-(2,2,2-trifluoroethyl)urea] | 0.16 | 
6 |  | CC(C)(C(=O)O)n1cc(-c2ccn3c(-c4cccc(NC(=O)NCC(F)(F)F)c4)cnc3c2)cn1 [Example 5, 2-Methyl-2-[4-(3-{3-[3-(2,2,2-trifluoroethyl)ureido]phenyl}imidazo [1,2-a]pyridin-7-yl)pyrazol-1-yl]propionic acid] |  | inhibition at 1 µM [1, 5]: 45%; inhibition at 10 µM [2, 3]: 0%
7 | 0.0092 | CN1CCC(n2cc(-c3ccn4c(-c5cccc(NC(=O)NCC(F)(F)F)c5)cnc4c3)cn2)CC1 [Example 6, 1-(3-{7-[1-(1-Methyl-piperidin-4-yl)-1H-pyrazol-4-yl]imidazo[1,2-a]pyridin-3-yl}phenyl)-3-(2,2,2-trifluoroethyl)urea] | 0.87 | 
8 | 0.0063 | O=C(NCC(F)(F)F)Nc1cccc(-c2cnc3cc(-c4ccc(N5CCCCC5)nn4)ccn23)c1 [Example 7, 1-{3-[7-(6-Piperidin-1-yl-pyridazin-3-yl)-imidazo[1,2-a]pyridin-3-yl]phenyl}-3-(2,2,2-trifluoroethyl)urea] | 0.86 | 
9 | 0.012 | O=C(NCC(F)(F)F)Nc1cccc(-c2cnc3cc(-c4nc5c(s4)CCC5)ccn23)c1 [Example 8, 1-{3-[7-(5,6-Dihydro-4H-cyclopentathiazol-2-yl)imidazo[1,2-a]pyridin-3-yl]-phenyl}-3-(2,2,2-trifluoroethyl)urea] | 0.45 | 
10 | 0.032 | O=C(NCC(F)(F)F)Nc1cccc(-c2cnc3cc(C#Cc4cccnc4)ccn23)c1 [Example 11, 1-[3-(7-Pyridin-3-ylethynylimidazo[1,2-a]pyridin-3-yl)phenyl]-3-(2,2,2-trifluoroethyl)urea] |  | 
11 | 0.041 | CN1CCN(c2ccc(-c3ccn4c(-c5cccc(NC(=O)NCC(F)(F)F)c5)cnc4c3)nn2)CC1 [Example 12, 1-(3-{7-[6-(4-Methylpiperazin-1-yl)pyridazin-3-yl]imidazo[1,2-a]pyridin-3-yl}phenyl)-3-(2,2,2-trifluoroethyl)urea] | 3.7 | 
12 | 0.1 | CN(C)CC#Cc1ccn2c(-c3cccc(NC(=O)NCC(F)(F)F)c3)cnc2c1 [Example 14, 1-{3-[7-(3-Dimethylaminoprop-1-ynyl)imidazo[1,2-a]pyridin-3-yl]phenyl}-3-(2,2,2-trifluoroethyl)urea] | 1.4 | 
13 | 0.11 | O=C(NCC(F)(F)F)Nc1cccc(-c2cnc3cc(C#Cc4ccsc4)ccn23)c1 [Example 16, 1-[3-(7-Thiophen-3-ylethynylimidazo[1,2-a]pyridinyl)phenyl]-3-(2,2,2-trifluoroethyl)urea] | 0.83 | 
14 | 0.044 | O=C(NCC(F)(F)F)Nc1cccc(-c2cnc3cc(-c4nnc(C(F)(F)F)s4)ccn23)c1 [Example 17, 1-(2,2,2-Trifluoroethyl)-3-{3-[7-(5-trifluoromethyl[1,3,4]thiadiazol-2-yl)-imidazo[1,2-a]pyridin-3-yl]phenyl}urea] | 0.056 | 
15 | 0.13 | O=C(NCC(F)(F)F)Nc1cccc(-c2cnc3cc(C#CCCO)ccn23)c1 [Example 19, 1-{3-[7-(4-Hydroxybut-1-ynyl)imidazo[1,2-a]pyridin-3-yl]phenyl}-3-(2,2,2-trifluoroethyl)urea] | 0.55 | 
16 | 1.1 | O=C(NCC(F)(F)F)Nc1cncc(-c2cnc3cc(-c4cccnn4)ccn23)c1 [Example 20, 1-[5-(7-Pyridazin-3-ylimidazo[1,2-a]pyridin-3-yl)pyridin-3-yl]-3-(2,2,2-trifluoroethyl)urea] |  | 
17 | 0.27 | O=C(NCC(F)(F)F)Nc1cccc(-c2cnc3cc(C#CCO)ccn23)c1 [Example 26, 1-{3-[7-(3-Hydroxyprop-1-ynyl)imidazo[1,2-a]pyridin-3-yl]phenyl}-3-(2,2,2-trifluoroethyl)urea] | 0.77 | 
18 | 0.52 | Cc1cc(=O)n2nc(-c3ccn4c(-c5cccc(NC(=O)NCC(F)(F)F)c5)cnc4c3)sc2n1 [Example 27, 1-{3-[7-(7-Methyl-5-oxo-5H-[1,3,4]thiadiazolo[3,2-a]pyrimidin-2-yl)imidazo[1,2-a]pyridin-3-yl]phenyl}-3-(2,2,2-trifluoroethyl)urea] |  | 
19 |  | Cn1cc(-c2ccn3c(-c4cccc(NC(=O)NCC(F)(F)F)c4)cnc3c2)c(CN)n1 [Example 57, 1-{3-[7-(3-Aminomethyl-1-methyl-1H-pyrazol-4-yl)-imidazo[1,2-a]pyridin-3-yl]-phenyl}-3-(2,2,2-trifluoro-ethyl)-urea] |  | inhibition at 3 µM [1, 5]: 40%
20 | 0.012 | O=C(NCC(F)(F)F)Nc1cccc(-c2cnc3cc(-c4ccncc4)ccn23)c1 [Example 83, 1-[3-(7-Pyridin-4-yl-imidazo[1,2-a]pyridin-3-yl)-phenyl]-3-(2,2,2-trifluoro-ethyl)-urea] |  | 
21 |  | Nc1ccn2c(-c3cccc(NC(=O)NCC(F)(F)F)c3)cnc2c1 [Example 115, 1-[3-(7-Aminoimidazol[1,2-a]pyridin-3-yl)phenyl]-3-(2,2,2-trifluoroethyl)urea] |  | inhibition at 10 µM [1, 5]: 0%
22 | 1.9 | Cc1nccn1-c1ccn2c(-c3cccc(NC(=O)NCC(F)(F)F)c3)cnc2c1 [Example 116, 1-{3-[7-(2-Methylimidazol-1-yl)-1,7-dihydroimidazol[1,2-a]pyridin-3-yl]-phenyl}-3-(2,2,2-trifluoroethyl)urea] |  | 
23 |  | O=C(NCC(F)(F)F)Nc1cccc(-c2cnc3cc(-c4nnc(CCN5CCCC5)s4)ccn23)c1 [Example 241] |  | inhibition at 10 µM [2, 3]: 4.2%
24 |  | CC(C)c1cnc(N)nc1-c1ccn2c(-c3cccc(NC(=O)NCC(F)(F)F)c3)cnc2c1 [Example 242] | 1.7 | 
25 |  | O=C(NCC(F)(F)F)Nc1cccc(-c2cnc3cc(-c4ncc(C(F)(F)F)cn4)ccn23)c1 [Example 244] |  | inhibition at 3 µM [2, 3]: 17%
26 |  | Cc1cn2nc(-c3ccn4c(-c5cc(NC(=O)NCC(F)(F)F)cc(OC(C)C)c5)cnc4c3)sc2n1 [Example 247] |  | inhibition at 1 µM [2, 3]: 36%

Row | Structure (SMILES) | IC50 [1] [µM] | IC50 [2, 4] [µM] | also measured
27 | CCNC(=O)Nc1cccc(-c2cnc3cc(-c4ncccn4)ccn23)c1 [Compound 280] | 0.35 |  | inhibition at 3 µM [2, 3]: 74%
28 | Cn1cncc1C#Cc1ccn2c(-c3cc(NC(=O)NCC(F)(F)F)ccc3F)cnc2c1 [Compound 327] | 0.31 |  | inhibition at 10 µM [2, 3]: 30%
29 | Cn1cncc1C#Cc1ccn2c(-c3cccc(NC(=O)NC4CC4)c3)cnc2c1 [Compound 329] | 0.23 |  | inhibition at 10 µM [2, 3]: 31%
30 | NC(=O)Nc1cccc(-c2cnc3cc(-c4ncccn4)ccn23)c1 [Compound 337] | 1.5 |  | inhibition at 10 µM [2, 3]: 23%
31 | O=C(NCC(F)(F)F)Nc1cccc(-c2cnc3cc(-c4cnn(C5CCNCC5)c4)ccn23)c1 [Example 4, 1-{3-[7-(1-Piperidin-4-yl-1H-pyrazol-4-yl)-imidazo[1,2-a]pyridin-3-yl]phenyl}-3-(2,2,2-trifluoroethyl)urea hydrochloride] | 0.077 |  | inhibition at 10 µM [2, 3]: 51%
32 | Cn1cncc1C#Cc1ccn2c(-c3cccc(NC(=O)NCC(F)(F)F)c3)cnc2c1 [Example 13B, 1-{3-[7-(3-Methyl-3H-imidazol-4-ylethynyl)-imidazo[1,2-a]pyridin-3-yl]-phenyl}-3-(2,2,2-trifluoro-ethyl)-urea dihydrochloride] | 0.031 |  | inhibition at 10 µM [2, 3]: 44%
33 | CC(O)C#Cc1ccn2c(-c3cccc(NC(=O)NCC(F)(F)F)c3)cnc2c1 (centres unmarked) [Example 18, 1-{3-[7-(3-Hydroxybut-1-ynyl)imidazo[1,2-a]pyridin-3-yl]phenyl}-3-(2,2,2-trifluoroethyl)urea formate] | 0.095 |  | IC50 [2, 6]: 1.4 µM
34 | Cc1ccc(-c2ccn3c(-c4cncc(NC(=O)NCC(F)(F)F)c4)cnc3c2)nn1 [Example 21, 1-{5-[7-(6-Methylpyridazin-yl)imidazo[1,2-a]pyridin-3-yl]pyridin-3-yl}-3-(2,2,2-trifluoroethyl)urea] | 0.41 |  | inhibition at 10 µM [2, 3]: 0%
35 | O=C(NCC(F)(F)F)Nc1cccc(-c2cnc3cc(-c4nnc(CCN5CCCCC5)s4)ccn23)c1 [Example 22, 1-(3-{7-[5-(2-Piperidin-1-ylethyl)-[1,3,4]thiadiazol-2-yl]imidazo[1,2-a]pyridin-3-yl}phenyl)-3-(2,2,2-trifluoroethyl)urea hydrochloride] | 0.0044 |  | IC50 [2, 6]: 1.1 µM
36 | O=C(NCC(F)(F)F)Nc1cncc(-c2cnc3cc(-c4nncs4)ccn23)c1 [Example 24, 1-[5-(7-[1,3,4]Thiadiazol-2-ylimidazo[1,2-a]pyridin-3-yl)pyridin-3-yl]-3-(2,2,2-trifluoroethyl)urea hydrochloride] | 0.57 |  | inhibition at 10 µM [2, 3]: 2.2%
37 | O=C(NCC(F)(F)F)Nc1cccc(-c2cnc3cc(-c4ccc(N5CCC5)nn4)ccn23)c1 [Example 82, 1-{3-[7-(6-Azetidin-1-yl-pyridazin-3-yl)-imidazo[1,2-a]pyridin-3-yl]-phenyl}-3-(2,2,2-trifluoro-ethyl)-urea hydrochloride] | 0.0067 |  | 
